Data reported in patent publication US8012998B2, “Pyrrolidine aryl-ether as NK-3 receptor antagonists” (Hoffmann—LA Roche Inc., priority 2007, dated 2011).

target: T1, human NK3 receptor (Homo sapiens, UniProt P29371); experiment: [3H]SR142801 competition binding assay (hNK3 receptor binding); conditions: [3H]SR142801 radioligand; membranes from HEK293 cells transiently expressing recombinant human NK3 receptor; Ki by Cheng-Prussoff; read-out: KiNK3 h
T1 construct: expressed in transfected cells; host or cells: HEK293 cells (transient expression), membrane preparation
T1 sequence (P29371 1-465): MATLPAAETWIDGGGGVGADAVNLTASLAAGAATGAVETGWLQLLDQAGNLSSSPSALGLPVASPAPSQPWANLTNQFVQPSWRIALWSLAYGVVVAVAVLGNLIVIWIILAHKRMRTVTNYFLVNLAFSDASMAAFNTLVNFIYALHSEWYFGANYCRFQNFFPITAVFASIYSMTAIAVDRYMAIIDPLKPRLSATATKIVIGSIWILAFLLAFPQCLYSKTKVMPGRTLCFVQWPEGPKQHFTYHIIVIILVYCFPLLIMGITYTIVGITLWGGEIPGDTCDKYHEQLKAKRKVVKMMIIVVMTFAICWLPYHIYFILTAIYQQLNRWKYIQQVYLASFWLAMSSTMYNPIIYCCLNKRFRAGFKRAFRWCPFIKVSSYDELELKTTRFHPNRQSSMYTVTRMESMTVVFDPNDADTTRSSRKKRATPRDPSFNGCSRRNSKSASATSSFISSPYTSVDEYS
Description: [^3H]SR^142801 Competition Binding Assay
hNK3 receptor binding experiment were performed using [^3H]SR^142801 (Catalog No. TRK1035, specific activity: 74.0 Ci/mmol, Amersham, GE Healthcare UK limited, Buckinghamshire, UK) and membrane isolated from HEK293 cells transiently expressing recombinant human NK3 receptor. After thawing, the membrane homogenates were centrifuged at 48,000×g for 10 min at 4° C., the pellets were resuspended in the 50 mM Tris-HCl, 4 mM MnCl2, 1 μM phosphoramidon, 0.1% BSA binding buffer at pH 7.4 to a final assay concentration of 5 μg protein/well. […] At the end of the incubation, membranes were filtered onto unitfilter (96-well white microplate with bonded GF/C filter preincubated 1 h in 0.3% PEI +0.3% BSA, Packard BioScience, Meriden, Conn.) with a Filtermate 196 harvester (Packard BioScience) and washed 4 times with ice-cold 50 mM Tris-HCl, pH 7.4 buffer. Nonspecific binding was measured in the presence of 10 μM SB222200 for both radioligands. The radioactivity on the filter was counted (5 min) on a Packard Top-count microplate scintillation counter with quenching correction after addition of 45 μl of microscint 40 (Canberra Packard S.A., Zutrich, Switzerland) and shaking for 1 h. Inhibition curves were fitted according to the Hill equation: y=100/(1+(x/IC50)^nH), where nH=slope factor using Excel-fit 4 software (Microsoft). IC50 values were derived from the inhibition curve and the affinity constant (Ki) values were calculated using the Cheng-Prussoff equation Ki=IC50/(1+[L]/KD) where [L] is the concentration of radioligand and KD is its dissociation constant at the receptor, derived from the saturation isotherm. All experiments were performed in duplicate and the mean ± standard error (SEM) of the individual Ki values was calculated.

Row | Molecule | Ki [nM]
1 | C[C@@H](Oc1ccc(Cl)cn1)[C@@H]1CN(C(=O)c2ccc(CC#N)o2)C[C@H]1c1ccc(Cl)c(Cl)c1 (racemic) [Example 30, {5-[(3SR,4RS)-3-[(RS)-1-(5-Chloro-pyridin-2-yloxy)-ethyl]-4-(3,4-dichloro-phenyl)-pyrrolidine-1-carbonyl]-furan-2-yl}-acetonitrile] | 80
2 | Cc1cc(C(=O)N2C[C@H]([C@H](CO)Oc3ccc(Cl)cn3)[C@@H](c3ccc(F)c(F)c3)C2)cnn1 [Example 116, [(3R,4S)-3-[(R)-1-(5-Chloro-pyridin-2-yloxy)-2-hydroxy-ethyl]-4-(3,4-difluoro-phenyl)-pyrrolidin-1-yl]-(6-methyl-pyridazin-4-yl)-methanone] | 28
3 | Cc1ncc(C(=O)N2CC(C(C)Oc3ccc(Cl)cn3)[C@H](c3ccc(Cl)c(Cl)c3)C2)cn1 (stereo in doubt) [Example 41, [(3S,4R)-3-[(R)-1-(5-Chloro-pyridin-2-yloxy)-ethyl]-4-(3,4-dichloro-phenyl)-pyrrolidin-1-yl]-(2-methyl-pyrimidin-5-yl)-methanone] | 66.4
4 | C[C@H](Oc1ccc(C#N)cn1)[C@H]1CN(C(=O)c2ccc(F)nc2)C[C@@H]1c1ccc(Cl)c(Cl)c1 (racemic) [Example 75, 6-{(SR)-1-[(3RS,4SR)-4-(3,4-Dichloro-phenyl)-1-(6-fluoro-pyridine-3-carbonyl)-pyrrolidin-3-yl]-ethoxy}-nicotinonitrile] | 33.6
5 | C[C@H](Oc1ccc(C#N)cn1)[C@H]1CN(C(=O)c2ccc(CN(C)C)nc2)C[C@@H]1c1ccc(Cl)c(Cl)c1 (racemic) [Example 43, 6-{(SR)-1-[(3RS,4SR)-4-(3,4-Dichloro-phenyl)-1-(6-dimethylaminomethyl-pyridine-3-carbonyl)-pyrrolidin-3-yl]-ethoxy}-nicotinonitrile] | 24.6
6 | COc1ccc(C(=O)N2C[C@@H]([C@@H](C)Oc3ccc(C#N)cn3)[C@H](c3ccc(Cl)c(Cl)c3)C2)cn1 (racemic) [Example 34, 6-{(RS)-1-[(3SR,4RS)-4-(3,4-Dichloro-phenyl)-1-(6-methoxy-pyridine-3-carbonyl)-pyrrolidin-3-yl]-ethoxy}-nicotinonitrile] | 47
7 | Cc1cccc(C(=O)N2C[C@H]([C@H](C)Oc3ccc(C#N)cn3)[C@@H](c3ccc(Cl)c(Cl)c3)C2)n1 (racemic) [Example 93, 6-{(SR)-1-[(3RS,4SR)-4-(3,4-Dichloro-phenyl)-1-(6-methyl-pyridine-2-carbonyl)-pyrrolidin-3-yl]-ethoxy}-nicotinonitrile] | 64.6
8 | Cc1cnc(C(=O)N2C[C@H]([C@H](C)Oc3ccc(C#N)cn3)[C@@H](c3ccc(Cl)c(Cl)c3)C2)cn1 (racemic) [Example 97, 6-{(SR)-1-[(3RS,4SR)-4-(3,4-Dichloro-phenyl)-1-(5-methyl-pyrazine-2-carbonyl)-pyrrolidin-3-yl]-ethoxy}-nicotinonitrile] | 67.5
9 | COc1ccc(C(=O)N2C[C@@H]([C@@H](C)Oc3ncc(F)cn3)[C@H](c3ccc(Cl)c(Cl)c3)C2)cn1 (racemic) [Example 25, {(3RS,4SR)-3-(3,4-Dichloro-phenyl)-4-[(RS)-1-(5-fluoro-pyrimidin-2-yloxy)-ethyl]-pyrrolidin-1-yl}-(6-methoxy-pyridin-3-yl)-methanone] | 63.3

Molecules with a lower Ki, results first:

Row | Ki [nM] | Molecule
10 | 17 | C[C@@H](Oc1ccc(Cl)cn1)[C@@H]1CN(C(=O)c2ccc(N)nc2)C[C@H]1c1ccc(Cl)c(Cl)c1 (racemic) [Example 20, (6-Amino-pyridin-3-yl)-[(3SR,4RS)-3-[(RS)-1-(5-chloro-pyridin-2-yloxy)-ethyl]-4-(3,4-dichloro-phenyl)-pyrrolidin-1-yl]-methanone]
11 | 17.7 | C#Cc1ccc(O[C@@H](C)[C@H]2CN(C(=O)c3cnnc(C)c3)C[C@@H]2c2ccc(Cl)c(Cl)c2)nc1 (racemic) [Example 110, {(3SR,4RS)-3-(3,4-Dichloro-phenyl)-4-[(SR)-1-(5-ethynyl-pyridin-2-yloxy)-ethyl]-pyrrolidin-1-yl}-(6-methyl-pyridazin-4-yl)-methanone]
12 | 11 | Cc1ncc(C(=O)N2C[C@H]([C@H](C)Oc3ccc(Cl)cn3)[C@@H](c3ccc(Cl)c(F)c3)C2)cn1 [Example 90, {(3S,4R)-3-(4-Chloro-3-fluoro-phenyl)-4-[(S)-1-(5-chloro-pyridin-2-yloxy)-ethyl]-pyrrolidin-1-yl}-(2-methyl-pyrimidin-5-yl)-methanone]
13 | 3 | Cc1cc(C(=O)N2C[C@H]([C@H](C)Oc3ccc(C(F)(F)F)cn3)[C@@H](c3ccc(Cl)cc3)C2)cnn1 [Example 119, {(3S,4R)-3-(4-Chloro-phenyl)-4-[(S)-1-(5-trifluoromethyl-pyridin-2-yloxy)-ethyl]-pyrrolidin-1-yl}-(6-methyl-pyridazin-4-yl)-methanone]
14 | 5.6 | [(3S,4R)-3-[(R)-1-(5-Chloro-pyridin-2-yloxy)-ethyl]-4-(3,4-dichloro-phenyl)-pyrrolidin-1-yl]-(6-methoxy-pyridin-3-yl)-methanone and [(3R,4S)-3-[(S)-1-(5-Chloro-pyridin-2-yloxy)-ethyl]-4-(3,4-dichloro-phenyl)-pyrrolidin-1-yl]-(6-methoxy-pyridin-3-yl)-methanone [Example 21]
15 | 3.2 | C[C@@H](Oc1ccc(Cl)cn1)[C@@H]1CN(C(=O)c2ccc(C#N)cc2)C[C@H]1c1ccc(Cl)c(Cl)c1 (racemic) [Example 10, 4-[(3SR,4RS)-3-[(RS)-1-(5-Chloro-pyridin-2-yloxy)-ethyl]-4-(3,4-dichloro-phenyl)-pyrrolidine-1-carbonyl]-benzonitrile]
16 | 6.1 | C[C@H](Oc1ccc(C#N)cn1)[C@H]1CN(C(=O)c2ccc(-n3ccnc3)nc2)C[C@@H]1c1ccc(Cl)c(Cl)c1 (racemic) [Example 71, 6-{(SR)-1-[(3RS,4SR)-4-(3,4-Dichloro-phenyl)-1-(6-imidazol-1-yl-pyridine-3-carbonyl)-pyrrolidin-3-yl]-ethoxy}-nicotinonitrile]
17 | 6.3 | Cc1cc(C(=O)N2C[C@@H]([C@@H](C)Oc3ccc(Cl)cn3)[C@H](c3ccc(Cl)c(Cl)c3)C2)ccn1 (racemic) [Example 15, [(3SR,4RS)-3-[(RS)-1-(5-Chloro-pyridin-2-yloxy)-ethyl]-4-(3,4-dichloro-phenyl)-pyrrolidin-1-yl]-(2-methyl-pyridin-4-yl)-methanone]
18 | 1.4 | Cc1nc(-c2ccc(C(=O)N3C[C@H]([C@H](C)Oc4ccc(C#N)cn4)[C@@H](c4ccc(Cl)c(Cl)c4)C3)cc2)no1 (racemic) [Example 61, 6-((SR)-1-{(3RS,4SR)-4-(3,4-Dichloro-phenyl)-1-[4-(5-methyl-[1,2,4]oxadiazol-3-yl)-benzoyl]-pyrrolidin-3-yl}-ethoxy)-nicotinonitrile]
19 | 5.8 | C[C@@H](Oc1ccc(Cl)cn1)[C@@H]1CN(C(=O)c2ccc(N(C)C)nc2)C[C@H]1c1ccc(Cl)c(Cl)c1 (racemic) [Example 19, [(3SR,4RS)-3-[(RS)-1-(5-Chloro-pyridin-2-yloxy)-ethyl]-4-(3,4-dichloro-phenyl)-pyrrolidin-1-yl]-(6-dimethylamino-pyridin-3-yl)-methanone]
20 | 23.4 | Cc1ncc(C(=O)N2C[C@H]([C@H](C)Oc3ccc(C#N)cn3)[C@@H](c3ccc(Cl)c(Cl)c3)C2)cn1 (racemic) [Example 57, 6-{(SR)-1-[(3RS,4SR)-4-(3,4-Dichloro-phenyl)-1-(2-methyl-pyrimidine-5-carbonyl)-pyrrolidin-3-yl]-ethoxy}-nicotinonitrile]
21 | 5 | Cc1cc(C(=O)N2C[C@H]([C@H](CO)Oc3ccc(Cl)cn3)[C@@H](c3ccc(Cl)c(Cl)c3)C2)cnn1 [Example 112, [(3R,4S)-3-[(R)-1-(5-Chloro-pyridin-2-yloxy)-2-hydroxy-ethyl]-4-(3,4-dichloro-phenyl)-pyrrolidin-1-yl]-(6-methyl-pyridazin-4-yl)-methanone]
22 | 12.5 | C[C@@H](Oc1ccc(Cl)cn1)[C@@H]1CN(C(=O)c2ccc(S(C)(=O)=O)nc2)C[C@H]1c1ccc(Cl)c(Cl)c1 (racemic) [Example 47, [(3SR,4RS)-3-[(RS)-1-(5-Chloro-pyridin-2-yloxy)-ethyl]-4-(3,4-dichloro-phenyl)-pyrrolidin-1-yl]-(6-methanesulfonyl-pyridin-3-yl)-methanone]
